# Laboratory results from ChEMBL document CHEMBL1806424, “The novel 3,4-dihydropyrimidin-2(1H)-one urea derivatives of N-aryl urea: synthesis, anti-inflammatory, antibacterial and antifungal activity evaluation” (2011).
# The source made the active and inactive calls. The calls are words filed in the database; no cut-off is given here.
# Legend:
# [1] = system: Aspergillus flavus; experiment: Antifungal activity against Aspergillus flavus at 200 ug/ml; assay type: functional, organism-based
# [2] = system: Bacillus subtilis; experiment: Antibacterial activity against Bacillus subtilis at 200 ug/ml; assay type: functional, organism-based
# [3] = system: Salmonella typhimurium; experiment: Antibacterial activity against Salmonella Typhimurium at 200 ug/ml; assay type: functional, organism-based; conditions: Salmonella enterica subsp. enterica serovar Typhimurium
# [4] = system: Staphylococcus aureus; experiment: Antibacterial activity against Staphylococcus aureus at 200 ug/ml; assay type: functional, organism-based
# [5] = system: Fusarium solani; experiment: Antifungal activity against Fusarium solani at 200 ug/ml; assay type: functional, organism-based
# [6] = system: THP-1; experiment: Antiinflammatory activity in human THP1 cells assessed as inhibition of LPS-induced TNFalpha production at 10 uM treated 30 mins before LPS challenge measured after 24 hrs by ELISA; assay type: functional
# [7] = system: Candida albicans; experiment: Antifungal activity against Candida albicans at 200 ug/ml; assay type: functional, organism-based
# [8] = system: Aspergillus niger; experiment: Antifungal activity against Aspergillus niger at 200 ug/ml; assay type: functional, organism-based
# [9] = system: Escherichia coli; experiment: Antibacterial activity against Escherichia coli; assay type: functional
# [10] = system: THP-1; experiment: Antiinflammatory activity in human THP1 cells assessed as inhibition of LPS-induced IL6 production at 10 uM treated 30 mins before LPS challenge measured after 24 hrs by ELISA; assay type: functional
# [11] = system: Aspergillus flavus; experiment: Antifungal activity against Aspergillus flavus; assay type: functional
# [12] = system: Salmonella typhimurium; experiment: Antibacterial activity against Salmonella Typhimurium; assay type: functional, Salmonella enterica subsp. enterica serovar Typhimurium; conditions: Salmonella enterica
# [13] = system: Fusarium solani; experiment: Antifungal activity against Fusarium solani; assay type: functional
# [14] = system: Aspergillus niger; experiment: Antifungal activity against Aspergillus niger; assay type: functional
# [15] = system: Staphylococcus aureus; experiment: Antibacterial activity against Staphylococcus aureus; assay type: functional
# [16] = system: Candida albicans; experiment: Antifungal activity against Candida albicans; assay type: functional
# [17] = system: Bacillus subtilis; experiment: Antibacterial activity against Bacillus subtilis; assay type: functional
# [18] = system: Aspergillus flavus; experiment: Ratio of miconazole MIC to compound MIC for Aspergillus flavus; assay type: functional
# [19] = system: Staphylococcus aureus; experiment: Ratio of ciprofloxacin MIC to compound MIC for Staphylococcus aureus; assay type: functional
# [20] = system: Fusarium solani; experiment: Ratio of miconazole MIC to compound MIC for Fusarium solani; assay type: functional
# [21] = system: Candida albicans; experiment: Ratio of miconazole MIC to compound MIC for Candida albicans; assay type: functional
# [22] = system: Aspergillus niger; experiment: Ratio of miconazole MIC to compound MIC for Aspergillus niger; assay type: functional
# [23] = system: Salmonella typhimurium; experiment: Ratio of ciprofloxacin MIC to compound MIC for Salmonella Typhimurium; assay type: functional, Salmonella enterica subsp. enterica serovar Typhimurium
# [24] = system: Escherichia coli; experiment: Ratio of ciprofloxacin MIC to compound MIC for Escherichia coli; assay type: functional
# [25] = system: Bacillus subtilis; experiment: Ratio of ciprofloxacin MIC to compound MIC for Bacillus subtilis; assay type: functional
# [26] = system: Escherichia coli; experiment: Antibacterial activity against Escherichia coli at 200 ug/ml; assay type: functional, organism-based
Compound,MIC [9] [µg/mL],MIC [11] [µg/mL],MIC [12] [µg/mL],MIC [13] [µg/mL],MIC [14] [µg/mL],MIC [15] [µg/mL],MIC [16] [µg/mL],MIC [17] [µg/mL],inhibition at 10 µM [6] [%],inhibition at 10 µM [10] [%],also measured
CCOC(=O)C1=C(C)NC(=S)NC1c1ccc(NC(=O)Nc2c(F)cccc2Cl)cc1 (stereo not drawn),85,90,85,80,60,65,40,55,0,36,
CCOC(=O)C1=C(C)NC(=S)NC1c1ccc(NC(=O)Nc2ccccc2Cl)cc1 (stereo not drawn),10,30,40,15,15,10,10,20,0,43,Ratio [18]: 2.5; Ratio [19]: 1.5; Ratio [20]: 2.5; Ratio [21]: 2.5; Ratio [22]: 2.5; Ratio [23]: 1.5; Ratio [24]: 1.5; Ratio [25]: 1.5
CCOC(=O)C1=C(C)NC(=S)NC1c1ccc(NC(=O)Nc2c(F)cccc2C(F)(F)F)cc1 (stereo not drawn),40,60,60,60,30,55,55,40,0,27,
CCOC(=O)C1=C(C)NC(=S)NC1c1ccc(NC(=O)Nc2c(Cl)cccc2C(F)(F)F)cc1 (stereo not drawn),60,55,90,80,65,40,60,85,0,39,
CCOC(=O)C1=C(C)NC(=S)NC1c1ccc(NC(=O)Nc2c(C)cccc2Cl)cc1 (stereo not drawn),55,40,80,40,55,40,40,65,2,11,
CCOC(=O)C1=C(C)NC(=S)NC1c1ccc(NC(=O)Nc2ccc(C)c(C)c2)cc1 (stereo not drawn),,,,,,90,95,95,0,2,Activity [1]: inactive; Activity [3]: inactive; Activity [5]: inactive; Activity [8]: inactive; Activity [26]: inactive

# More lines, in order of falling MIC [9], values ahead:
MIC [9] [µg/mL],MIC [11] [µg/mL],MIC [12] [µg/mL],MIC [13] [µg/mL],MIC [14] [µg/mL],MIC [15] [µg/mL],MIC [16] [µg/mL],MIC [17] [µg/mL],Compound,inhibition at 10 µM [6] [%],inhibition at 10 µM [10] [%],also measured
95,,,,,,,,CCCCc1ccc(NC(=O)Nc2ccc(C3NC(=S)NC(C)=C3C(=O)OCC)cc2)cc1 (stereo not drawn),0,10,Activity [1]: inactive; Activity [2]: inactive; Activity [3]: inactive; Activity [4]: inactive; Activity [5]: inactive; Activity [7]: inactive; Activity [8]: inactive
80,90,90,85,80,55,60,85,CCOC(=O)C1=C(C)NC(=S)NC1c1ccc(NC(=O)Nc2cc(C(F)(F)F)ccc2Cl)cc1 (stereo not drawn),68,92,
55,95,95,80,90,85,90,85,CCOC(=O)C1=C(C)NC(=S)NC1c1ccc(NC(=O)Nc2ccc(C(C)C)cc2)cc1 (stereo not drawn),30,65,
25,35,55,60,40,35,35,35,CCOC(=O)C1=C(C)NC(=S)NC1c1ccc(NC(=O)Nc2ccc(C(F)(F)F)cc2Cl)cc1 (stereo not drawn),16,73,
15,30,30,30,40,25,25,25,CCOC(=O)C1=C(C)NC(=S)NC1c1ccc(NC(=O)Nc2ccccc2C(F)(F)F)cc1 (stereo not drawn),10,27,
15,30,45,30,25,15,10,20,CCOC(=O)C1=C(C)NC(=S)NC1c1ccc(NC(=O)Nc2ccc(OC)cc2)cc1 (stereo not drawn),0,42,
10,25,30,10,15,20,15,25,CCOC(=O)C1=C(C)NC(=S)NC1c1ccc(NC(=O)Nc2ccc(C(F)(F)F)cc2)cc1 (stereo not drawn),3,55,
